In patent publication US20240150338A1, “COMPOUNDS AND USE THEREOF FOR TREATMENT OF NEURODEGENERATIVE, DEGENERATIVE AND METABOLIC DISORDERS” (University of Florida Research Foundation, Incorporated, priority 2021, published 2024):

Tested on: PK1 neuroblastoma cells exposed to TPrP
Assay: cells
Format: cell-based
Details: Neuroblastoma cell, 96 h, read-out: TPrP EC50

SMILES | EC50 [nM]
CNS(=O)(=O)c1ccc(-c2csc(Nc3ccc(S(N)(=O)=O)cc3)n2)cc1 [SR-34771, N-methyl-4-(2-((4-sulfamoylphenyl)amino)thiazol-4-yl)benzenesulfonamide] | 25
COc1cc(-c2nc(Nc3ccc(S(C)(=O)=O)c(Cl)c3)sc2CO)ccn1 [SR-34996, (2-((3-Chloro-4-(methylsulfonyl)phenyl)amino)-4-(2-methoxypyridin-4-yl)thiazol-5-yl)methanol] | 170
CCN(CC)S(=O)(=O)c1ccc(-c2nc(Nc3ccc(S(C)(=O)=O)cc3)sc2CO)cc1 [SR-34970, N,N-diethyl-4-(5-(hydroxymethyl)-2-((4-(methylsulfonyl)phenyl)amino)thiazol-4-yl)benzenesulfonamide] | > 500
NS(=O)(=O)c1ccc(Nc2nc(-c3ccc(S(=O)(=O)N4CCCCC4)cc3)c(CO)s2)cc1 [SR-34772, 4-((5-(Hydroxymethyl)-4-(4-(piperidin-1-ylsulfonyl)phenyl)thiazol-2-yl)amino)benzenesulfonamide] | 400
CN(C)S(=O)(=O)c1ccc(-c2csc(Nc3ccc(S(N)(=O)=O)cc3)n2)cc1 [SR-34769, N,N-dimethyl-4-(2-((4-sulfamoylphenyl)amino)thiazol-4-yl)benzenesulfonamide] | 30
COc1cc(-c2csc(Nc3ccc(S(C)(=O)=O)c(C(F)(F)F)c3)n2)cc(OC)n1 [SR-34986, 4-(2,6-Dimethoxypyridin-4-yl)-N-(4-(methylsulfonyl)-3-(trifluoromethyl)phenyl)thiazol-2-amine] | > 500
CNS(=O)(=O)c1ccc(-c2csc(Nc3ccc(S(C)(=O)=O)c(C(F)(F)F)c3)n2)cc1 [SR-35734, N-methyl-4-(2-((4-(methylsulfonyl)-3-(trifluoromethyl)phenyl)amino)thiazol-4-yl)benzenesulfonamide] | 3
Cc1cc(-c2nc(Nc3ccc(S(C)(=O)=O)c(Cl)c3)sc2CO)cc(C)n1 [SR-34995, (2-((3-Chloro-4-(methylsulfonyl)phenyl)amino)-4-(2,6-dimethylpyridin-4-yl)thiazol-5-yl)methanol] | 115
COc1cc(-c2csc(Nc3ccc(S(C)(=O)=O)c(F)c3)n2)cc(OC)n1 [SR-34976, 4-(2,6-Dimethoxypyridin-4-yl)-N-(3-fluoro-4-(methylsulfonyl)phenyl)thiazol-2-amine] | 320
Cc1cc(-c2csc(Nc3ccc(S(C)(=O)=O)c(F)c3)n2)ccn1 [SR-34973, N-(3-fluoro-4-(methylsulfonyl)phenyl)-4-(2-methylpyridin-4-yl)thiazol-2-amine] | 70
CCN(c1ccc(S(C)(=O)=O)cc1)c1nc(-c2ccnc(C)c2)cs1 [SR-35368, N-ethyl-4-(2-methylpyridin-4-yl)-N-(4-(methylsulfonyl)phenyl)thiazol-2-amine] | 230
Cc1cc(-c2nc(Nc3ccc(S(C)(=O)=O)cc3)sc2CSc2ccccc2)ccn1 [SR-35371, 4-(2-Methylpyridin-4-yl)-N-(4-(methylsulfonyl)phenyl)-5-((phenylthio)methyl)thiazol-2-amine] | > 500
Cc1cc(-c2csc(Nc3ccc(S(C)(=O)=O)c(C(F)(F)F)c3)n2)ccn1 [SR-34983, 4-(2-Methylpyridin-4-yl)-N-(4-(methylsulfonyl)-3-(trifluoromethyl)phenyl)thiazol-2-amine] | 40
CC(C)NS(=O)(=O)c1ccc(-c2nc(Nc3ccc(S(C)(=O)=O)cc3)sc2CO)cc1 [SR-34971, 4-(5-(Hydroxymethyl)-2-((4-(methylsulfonyl)phenyl)amino)thiazol-4-yl)-N-isopropylbenzenesulfonamide] | > 500
Cc1cc(-c2nc(Nc3ccc(S(C)(=O)=O)c(C(F)(F)F)c3)sc2CO)cc(C)n1 [SR-34989, (4-(2,6-Dimethylpyridin-4-yl)-2-((4-(methylsulfonyl)-3-(trifluoromethyl)phenyl)amino)thiazol-5-yl)methanol] | 325
COc1cc(-c2csc(Nc3ccc(S(C)(=O)=O)c(C(F)(F)F)c3)n2)ccn1 [SR-34985, 4-(2-Methoxypyridin-4-yl)-N-(4-(methylsulfonyl)-3-(trifluoromethyl)phenyl)thiazol-2-amine] | 335
NS(=O)(=O)c1ccc(Nc2nc(-c3ccc(S(=O)(=O)Nc4ccccc4)cc3)cs2)cc1 [SR-34767, N-Phenyl-4-(2-((4-sulfamoylphenyl)amino)thiazol-4-yl)benzenesulfonamide] | > 500
Cc1cc(-c2nc(Nc3ccc(S(C)(=O)=O)cc3)sc2COc2ccccc2)ccn1 [SR-35369, 4-(2-Methylpyridin-4-yl)-N-(4-(methylsulfonyl)phenyl)-5-(phenoxymethyl)thiazol-2-amine] | > 500
COc1cc(-c2nc(Nc3ccc(S(C)(=O)=O)c(C(F)(F)F)c3)sc2CO)ccn1 [SR-34990, (4-(2-Methoxypyridin-4-yl)-2-((4-(methylsulfonyl)-3-(trifluoromethyl)phenyl)amino)thiazol-5-yl)methanol] | 480
Cc1cc(-c2nc(Nc3ccc(S(C)(=O)=O)cc3)sc2C=O)ccn1 [SR-35367, 4-(2-Methylpyridin-4-yl)-2-((4-(methylsulfonyl)phenyl)amino)thiazole-5-carbaldehyde] | 230

SMILES | EC50 [nM]
CCN(CC)S(=O)(=O)c1ccc(-c2csc(Nc3ccc(S(C)(=O)=O)cc3)n2)cc1 [SR-34966, N,N-diethyl-4-(2-((4-(methylsulfonyl)phenyl)amino)thiazol-4-yl)benzenesulfonamide] | > 500
CNS(=O)(=O)c1ccc(-c2nc(Nc3ccc(S(N)(=O)=O)cc3)sc2CO)cc1 [SR-34777, 4-(5-(Hydroxymethyl)-2-((4-sulfamoylphenyl)amino)thiazol-4-yl)-N-methylbenzenesulfonamide] | 70
Cc1cc(-c2nc(Nc3ccc(S(C)(=O)=O)c(F)c3)sc2CO)ccn1 [SR-34978, (2-((3-Fluoro-4-(methylsulfonyl)phenyl)amino)-4-(2-methylpyridin-4-yl)thiazol-5-yl)methanol] | 320
Cc1cc(-c2nc(Nc3ccc(S(C)(=O)=O)cc3)sc2COc2ccc(F)cc2)ccn1 [SR-35370, 5-((4-Fluorophenoxy)methyl)-4-(2-methylpyridin-4-yl)-N-(4-(methylsulfonyl)phenyl)thiazol-2-amine] | > 500
COc1cc(-c2nc(Nc3ccc(S(C)(=O)=O)c(C(F)(F)F)c3)sc2CO)cc(OC)n1 [SR-34991, (4-(2,6-Dimethoxypyridin-4-yl)-2-((4-(methylsulfonyl)-3-(trifluoromethyl)phenyl)amino)thiazol-5-yl)methanol] | > 500
CC(C)NS(=O)(=O)c1ccc(-c2csc(Nc3ccc(S(C)(=O)=O)cc3)n2)cc1 [SR-34967, N-isopropyl-4-(2-((4-(methylsulfonyl)phenyl)amino)thiazol-4-yl)benzenesulfonamide] | 500
COCc1sc(Nc2ccc(S(C)(=O)=O)cc2)nc1-c1ccnc(C)c1 [SR-35364, 5-(Methoxymethyl)-4-(2-methylpyridin-4-yl)-N-(4-(methylsulfonyl)phenyl)thiazol-2-amine] | 230
CN(C)S(=O)(=O)c1ccc(-c2nc(Nc3ccc(S(C)(=O)=O)cc3)sc2CO)cc1 [SR-34969, 4-(5-(Hydroxymethyl)-2-((4-(methylsulfonyl)phenyl)amino)thiazol-4-yl)-N,N-dimethylbenzenesulfonamide] | 350
NS(=O)(=O)c1ccc(Nc2nc(-c3ccncc3)cs2)cc1 [SR-186, 4-((4-(pyridin-4-yl)thiazol-2-yl)amino)benzenesulfonamide] | 70
CS(=O)(=O)c1ccc(Nc2nc(-c3ccnc(Cl)c3)c(CO)s2)cc1C(F)(F)F [SR-34987, (4-(2-Chloropyridin-4-yl)-2-((4-(methylsulfonyl)-3-(trifluoromethyl)phenyl)amino)thiazol-5-yl)methanol] | 480
CN(C)S(=O)(=O)c1ccc(-c2csc(Nc3ccc(S(C)(=O)=O)cc3)n2)cc1 [SR-34965, N,N-dimethyl-4-(2-((4-(methylsulfonyl)phenyl)amino)thiazol-4-yl)benzenesulfonamide] | 100
Cc1cc(-c2nc(Nc3ccc(S(C)(=O)=O)c(C(F)(F)F)c3)sc2CO)ccn1 [SR-34988, (4-(2-Methylpyridin-4-yl)-2-((4-(methylsulfonyl)-3-(trifluoromethyl)phenyl)amino)thiazol-5-yl)methanol] | 335
COc1cc(-c2nc(Nc3ccc(S(C)(=O)=O)c(F)c3)sc2CO)cc(OC)n1 [SR-34981, (4-(2,6-Dimethoxypyridin-4-yl)-2-((3-fluoro-4-(methylsulfonyl)phenyl)amino)thiazol-5-yl)methanol] | > 500
COc1cc(-c2nc(Nc3ccc(S(C)(=O)=O)c(F)c3)sc2CO)ccn1 [SR-34980, (2-((3-Fluoro-4-(methylsulfonyl)phenyl)amino)-4-(2-methoxypyridin-4-yl)thiazol-5-yl)methanol] | 320
NS(=O)(=O)c1ccc(Nc2nc(-c3ccc(S(=O)(=O)N4CCOCC4)cc3)c(CO)s2)cc1 [SR-34764, 4-((5-(Hydroxymethyl)-4-(4-(morpholinosulfonyl)phenyl)thiazol-2-yl)amino)benzenesulfonamide] | 60
CCN(CC)S(=O)(=O)c1ccc(-c2csc(Nc3ccc(S(N)(=O)=O)cc3)n2)cc1 [SR-34768, N,N-diethyl-4-(2-((4-sulfamoylphenyl)amino)thiazol-4-yl)benzenesulfonamide] | 150
COc1cc(-c2csc(Nc3ccc(S(C)(=O)=O)c(F)c3)n2)ccn1 [SR-34975, N-(3-fluoro-4-(methylsulfonyl)phenyl)-4-(2-methoxypyridin-4-yl)thiazol-2-amine] | 170
CS(=O)(=O)c1ccc(Nc2nc(-c3ccnc(Cl)c3)c(CO)s2)cc1F [SR-34977, (4-(2-Chloropyridin-4-yl)-2-((3-fluoro-4-(methylsulfonyl)phenyl)amino)thiazol-5-yl)methanol] | 360
NS(=O)(=O)c1ccc(Nc2nc(-c3ccc(S(=O)(=O)N4CCOCC4)cc3)cs2)cc1 [SR-34765, 4-((4-(4-(Morpholinosulfonyl)phenyl)thiazol-2-yl)amino)benzenesulfonamide] | 70
CNS(=O)(=O)c1ccc(-c2nc(Nc3ccc(S(C)(=O)=O)cc3)sc2CO)cc1 [SR-34968, 4-(5-(Hydroxymethyl)-2-((4-(methylsulfonyl)phenyl)amino)thiazol-4-yl)-N-methylbenzenesulfonamide] | > 500
